These are literature values, as cited in PMC8985968, “Purification and characterization of antifungal lipopeptide produced by Bacillus velezensis isolated from raw honey” (PLoS ONE, 2022).

Data set [1] has as its system Aspergillus, Fusarium, Chrysosporium, Candida albicans, Trichosporium, Alternaria, and Cladosporium. To be noted: isolated from crude extract of B. subtilis. The source says: In a study by Pathak and Keharia (2014), iturin isomers and surfactin families were isolated from crude extract of B. subtilis. […] Similar t ...
The test system of a further data set is mouse models. How it is done: The safety of the producer strains and their products need to be evaluated to achieve broader application of iturin A produced by Bacillus species. […] B. velezensis FZB42 type strain, which is closely related to our isolates, was also evaluated by US Environmental Protection Agency (EPA) and considered n ...

On to Iturin A2, for which, in data set [1], the Antifungal spectrum entry was “broad spectrum antifungal activities”.

As to Iturin A3/A4/A5, the Antifungal spectrum entry in data set [1] is “broad spectrum antifungal activities”.

Take iturin: in the data set with mouse models (intragastric, 7-day, 5000 mg/kg, no significant damage to liver, kidney, or small intestines), the Acute toxicity test result was “safe and non-toxic”. The Subacute toxicity test result in the data set with mouse models (intragastric, 28-day, 2000 mg/kg, no significant damage to liver, kidney, or small intestines) was “safe and non-toxic”.

Regarding iturin A, in the data set with mouse models (mouse models), the “Organ-specific toxicity after discontinuation of treatment” value is “reversible”; the “Tissue deposition of iturin A” value is “deposited in liver, lung, and spleen”. In addition, in the data set on mouse models (preliminary toxicology study, acute and subacute), the “Toxicity of iturin A in mouse models” value is “can induce hepatotoxicity”.
